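How tested: cells in 96-well plates exposed to compound for 48 hours at five concentrations. TGI is the concentration that stops growth completely.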
How the values were obtained:
Test in all cases: NCI-60 cell line screen, 48 h
SN12C renal = tested on: SN12C renal
OVCAR-8 ovarian = tested on: OVCAR-8 ovarian
NCI-H460 lung = tested on: NCI-H460 lung
PC-3 prostate = tested on: PC-3 prostate
786-0 renal = tested on: 786-0 renal
EKVX NSCLC = tested on: EKVX NSCLC
UACC-62 melanoma = tested on: UACC-62 melanoma
BT-549 breast = tested on: BT-549 breast
NCI-H522 lung = tested on: NCI-H522 lung
T-47D breast = tested on: T-47D breast
ACHN renal = tested on: ACHN renal
M14 melanoma = tested on: M14 melanoma
COLO 205 colon = tested on: COLO 205 colon
UO-31 renal = tested on: UO-31 renal
MDA-N = tested on: MDA-N
SK-OV-3 ovarian = tested on: SK-OV-3 ovarian

Compound | TGI (SN12C renal) [µM] | TGI (OVCAR-8 ovarian) [µM] | TGI (NCI-H460 lung) [µM] | TGI (PC-3 prostate) [µM] | TGI (786-0 renal) [µM] | TGI (EKVX NSCLC) [µM] | TGI (UACC-62 melanoma) [µM] | TGI (BT-549 breast) [µM] | TGI (NCI-H522 lung) [µM] | TGI (T-47D breast) [µM] | TGI (ACHN renal) [µM] | TGI (M14 melanoma) [µM] | TGI (COLO 205 colon) [µM] | TGI (UO-31 renal) [µM] | TGI (MDA-N) [µM] | TGI (SK-OV-3 ovarian) [µM]
O=C1C(Cl)C(c2cccc(Cl)c2)N1c1ccc(-n2c(=S)[nH]c3ccccc3c2=O)cc1 (centres undefined) | 31.9 | > 100 | 35.3 | > 100 | 54.9 | > 100 | 31.5 | > 100 | 31.3 | > 100 | 48.8 | 58.7 | 77.9 | 49 | 54.7 | 72.5
Cc1ccc(C)c(COCCOCn2ccc(N)nc2=O)c1 | > 100 | > 100 | > 100 | > 100 | > 100 | > 100 | > 100 | > 100 | > 100 | > 100 | > 100 | > 100 | > 100 | > 100 | > 100 | > 100
Cc1ccc(/C=C2\CCC/C(=C\c3ccc(O)c(CN4CCCCC4)c3)C2=O)cc1 | 26.5 | 8.37 | 20 | > 47.5 | 14.3 | 27.8 | 9.92 | 23.9 | 17.9 | 60.2 | 18.6 | > 37.7 | 44.6 | 23.3 | 25.2 | 26.3
O=C1CCCC2(c3ccccc3)Nc3ccccc3N12 (centres undefined) | > 100 | > 100 | > 100 | > 100 | > 100 | > 100 | > 100 | > 100 | > 100 | > 100 | > 100 | > 100 | > 100 | > 100 | > 100 | > 100
COc1ccc(N2C(=O)C3ON(C(C(N)=O)c4ccccc4)C(c4cc5ccccc5c5ccccc45)C3C2=O)cc1 (centres undefined) | > 50 | > 50 | > 50 | > 50 | > 50 | > 50 | > 50 | > 50 | > 50 | > 50 | > 50 | > 50 | > 50 | 34.5 | 35.6 | > 50
CC(C)(C)c1ccc(-c2nc3ccc(Cl)cc3c(=O)o2)cc1 | > 100 | 49.3 | > 100 | 92.1 | > 100 | 70 | 56.5 | 63.6 | 29.7 | > 100 | 61.7 | 49.2 | 39.9 | 77.6 | 64 | 68.7
CC12CCC([C@H](C(O)C3CCCCC3)C1=O)C2(C)C (some centres undefined) | > 100 | > 100 | > 100 | > 100 | > 100 | > 100 | > 100 | > 100 | > 100 | > 100 | > 100 | > 100 | > 100 | > 100 | > 100 | > 100
NC(CCC(=O)O)C(=O)N1CCN(c2nc(N3CCCC3)c3nc(Cl)c(NCc4ccccc4)nc3n2)CC1 (centres undefined) | 30.7 | 38.6 | 24.9 | 26.9 | 25.9 | 27.7 | 24.7 | 25.4 | 34.5 | 21.3 | 28.8 | 22.6 | 23.9 | 21.6 | 23.1 | 32.9
Cc1ccc(NC(=O)c2cccc(OP(=O)(O)Nc3ccc(C)cc3)c2)cc1 | > 100 | > 100 | > 100 | > 100 | > 100 | > 100 | > 100 | > 100 | > 100 | > 100 | > 100 | > 100 | > 100 | > 100 | > 100 | > 100
O=c1c2cc(S(=O)(=O)O)ccc2nc(COc2ccc(Oc3ccc(Cl)cc3Cl)cc2)n1-c1ccc(Cl)cc1Oc1c(Cl)cccc1Cl | 99.4 | 75.1 | 46.5 | > 100 | 64.6 | 40.4 | 48.9 | 61.1 | 48.4 | > 100 | 68.5 | 55.8 | 32.1 | 37 | 99.4 | 63.2
CC1=CC(=O)N(n2c(Cc3ccccc3)n[nH]c2=O)C1=O | > 100 | > 100 | > 100 | > 100 | > 100 | > 100 | > 100 | > 100 | > 100 | > 100 | > 100 | > 100 | > 100 | > 100 | > 100 | > 100
COc1ccccc1N1CCN(CCCN2/C(=C(\O)c3ccccc3)C(=O)c3c(C)cc(C)nc3S2(=O)=O)CC1 | > 100 | > 100 | > 100 | > 100 | > 100 | > 100 | > 100 | > 100 | > 100 | > 100 | > 100 | > 100 | > 100 | > 100 | > 100 | > 100
COC(=O)CCc1cc(O)c2c(c1)C(C(=O)OC)C(c1ccc(O)c(O)c1)O2 (centres undefined) | > 88.7 | 65.1 | > 62.8 | > 100 | > 100 | > 100 | > 100 | > 100 | > 100 | > 72.3 | > 100 | > 100 | > 100 | > 100 | 13.3 | > 93
CNc1nc2n(CCO)c(-c3ccccc3)c(-c3ccccc3)nc-2c(=O)n1 | > 50 | > 50 | > 50 | > 50 | > 50 | > 50 | > 50 | > 50 | > 50 | > 50 | > 50 | > 50 | > 50 | > 50 | > 50 | > 50
COC(=O)C1C(=O)C=CN([C@H](C)c2ccccc2)[C@@H]1Cc1ccc(OC)c(OCc2ccccc2)c1I (some centres undefined) | 28.8 | > 100 | 31.7 | > 100 | 34.4 | > 100 | 25.7 | 38 | 36.8 | 60.9 | 70 | 30.2 | 31.7 | 26.3 | 34.3 | > 100
CCn1c(SCC(=O)NNC(=S)Nc2ccc(C)cc2)nc2ccccc2c1=O | > 100 | > 100 | – | > 100 | > 100 | > 100 | > 100 | > 100 | > 100 | > 100 | > 100 | > 100 | > 100 | 55.3 | > 100 | > 100
O=c1oc2cc(O)ccc2c(O)c1C(c1ccccc1F)c1c(O)c2ccc(O)cc2oc1=O | > 100 | > 100 | > 100 | > 100 | > 100 | > 100 | > 100 | 48.4 | > 100 | > 100 | > 100 | > 100 | > 100 | > 100 | > 100 | > 100
Cc1ccc(NC(=S)N/N=C(/c2ccccc2)c2ccccn2)cc1 | 10.1 | 14 | 7.05 | 20.9 | 13.7 | 12.9 | 10.1 | 19.1 | 24.4 | 12.6 | 10.3 | 2.21 | 2.89 | 7.68 | 19.5 | 9.29
CC1ON2CCCC2[C@H]1C(=O)N1C2CC3CCC2(CS1(=O)=O)C3(C)C (some centres undefined) | > 100 | > 100 | > 100 | > 100 | > 100 | > 100 | > 100 | > 100 | > 100 | > 100 | > 100 | > 100 | > 100 | > 100 | > 100 | > 100
CCn1c2ccccc2n2c(=O)c3c(c(C#N)c12)CCCC3 | > 100 | > 100 | > 100 | > 100 | > 100 | > 100 | > 100 | > 100 | > 100 | > 100 | > 100 | > 100 | > 100 | > 100 | > 100 | > 100
CN1C2CCC1CC(CCNC(c1ccccc1)c1ccccc1)C2 (centres undefined) | > 100 | > 100 | > 100 | > 100 | 41.4 | > 100 | – | > 100 | 85.7 | 72.2 | > 100 | 24.9 | 23.6 | 56.5 | 30.6 | > 100
COc1ccc(O)c(/C(C)=N/NC(=S)N(C)C)c1 | > 100 | > 100 | > 100 | > 100 | > 100 | > 100 | > 71.6 | > 100 | > 100 | > 100 | > 100 | > 100 | > 100 | > 100 | > 100 | > 100
CCNc1cc2c(cc1O)CC[C@@H]1[C@@H]2CC[C@]2(C)[C@@H](O)CC[C@@H]12 | 29.1 | 24.1 | 13.7 | 22.8 | 25.3 | 34.8 | > 35 | 43.3 | 11.8 | > 55.3 | 22 | 18.9 | 27.8 | 24.3 | 2.14 | > 39
CN(C)CCCN1c2ccccc2Sc2cnccc21 | > 100 | > 100 | > 100 | > 100 | > 100 | > 100 | > 100 | > 100 | > 100 | > 100 | > 100 | > 100 | > 100 | > 100 | > 100 | > 100
COc1cc(OC)c2c(=O)c(OC)c(-c3ccc4c(c3)OCO4)oc2c1 | > 100 | > 100 | > 100 | > 100 | 79.3 | > 100 | 72 | > 100 | 92.3 | > 100 | > 100 | > 100 | > 100 | > 100 | > 100 | 71.7
CC(C)(C)C1=CC(=C(c2ccc(-c3c4nc(c(-c5ccc(C(=C6C=C(C(C)(C)C)C(=O)C(C(C)(C)C)=C6)c6cc(C(C)(C)C)c(O)c(C(C)(C)C)c6)cc5)c5ccc([nH]5)c(-c5ccc(C(=C6C=C(C(C)(C)C)C(=O)C(C(C)(C)C)=C6)c6cc(C(C)(C)C)c(O)c(C(C)(C)C)c6)cc5)c5nc(c(-c6ccc(C(=C7C=C(C(C)(C)C)C(=O)C(C(C)(C)C)=C7)c7cc(C(C)(C)C)c(O)c(C(C)(C)C)c7)cc6)c6ccc3[nH]6)C=C5)C=C4)cc2)c2cc(C(C)(C)C)c(O)c(C(C)(C)C)c2)C=C(C(C)(C)C)C1=O | > 100 | > 100 | > 100 | > 100 | > 100 | > 100 | > 100 | > 100 | > 100 | > 100 | > 100 | > 100 | > 100 | > 100 | > 100 | > 100
Cc1cccc2c(N)c3cccc(C(=O)NCC[N+](C)(C)Cc4c([N+](=O)[O-])ncn4C)c3nc12 | > 100 | > 95.5 | – | > 100 | 37.2 | > 100 | > 100 | > 100 | > 52.9 | > 100 | > 39.5 | > 100 | > 100 | 69.1 | > 100 | > 71.1

Source: PubChem BioAssay (NCI)
